Measured values: patent US12545639B2, “3-substituted phenylamidine compounds, preparation and use thereof” (PI INDUSTRIES LTD., priority 2019, dated 2026)

Assays:
[1] = tested on: Pyricularia oryzae; assay: microbe, parasite or virus in culture; format: cell-based; details: 168 h, read-out: control compared to the untreated check (radial growth)
[2] = tested on: Rhizoctonia solani; assay: Rhizoctonia solani (rice sheath blight/potato black scurf) in vitro test, radial growth on potato dextrose agar; format: cell-based; details: 168 h, 300 ppm in potato dextrose agar, 25° C., 60% relative humidity, seven days, read-out: control compared to the untreated check (radial growth)
[3] = tested on: Botrytis cinerea; assay: Botrytis cinerea (gray mold) in vitro test, radial growth on potato dextrose agar; format: cell-based; details: 168 h, 300 ppm in potato dextrose agar, 22° C., 90% relative humidity, seven days, read-out: control compared to the untreated check (radial growth)
[4] = tested on: Alternaria solani; assay: Alternaria solani (early blight of tomato/potato) in vitro test, radial growth on potato dextrose agar; format: cell-based; details: 168 h, 300 ppm in potato dextrose agar, 25° C., 60% relative humidity, seven days, read-out: control compared to the untreated check (radial growth)
[5] = tested on: Septoria lycopersici/Corynespora cassicola (CORYCA); assay: Septoria lycopersici/Corynespora cassicola (CORYCA) (leaf spot of tomato) in vitro test, radial growth on potato dextrose agar; format: cell-based; details: 168 h, 300 ppm in potato dextrose agar, 25° C., 70% relative humidity, seven days, read-out: control compared to the untreated check (radial growth)
[6] = tested on: Fusarium culmorum; assay: Fusarium culmorum (foot rot of cereals) in vitro test, radial growth on potato dextrose agar; format: cell-based; details: 168 h, 300 ppm in potato dextrose agar, 25° C., 60% relative humidity, seven days, read-out: control compared to the untreated check (radial growth)
Outline: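 Compound in 0.3% DMSO mixed into potato dextrose agar, plates seeded with a 5 mm mycelial disc from an actively growing virulent culture. After seven days at 25° C and 60% relative humidity, radial growth was measured against untreated control.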

[7] = tested on: Pyricularia oryzae; assay: whole plant or invertebrate; format: in vivo, Pyricularia oryzae on rice; details: read-out: Efficacy (% control), disease severity compared to the untreated check
[8] = tested on: Phakopsora pachyrhizi; assay: Phakopsora pachyrhizi test in soybean, preventive, in vivo on plants; details: in Glycine max, read-out: Efficacy (% control), disease severity compared to the untreated check
[9] = tested on: Colletotrichum capsici; assay: Colletotrichum capsici (anthracnose) in vitro test, radial growth on potato dextrose agar; format: cell-based; details: Colletotrichum truncatum, 168 h; 300 ppm in potato dextrose agar; 25° C., 60% relative humidity, seven days; read-out: control compared to the untreated check (radial growth)

CCN(C)C=Nc1cc(C)cc(Cc2cc(C)cc(C)c2)c1Cl [Compound 55, N′-(2-chloro-3-(3,5-dimethylbenzyl)-5-methylphenyl)-N-ethyl-N-methylformimidamide]
≥ 70%: inhibition of growth at 300 ppm [1] | inhibition of growth at 300 ppm [2] | inhibition of growth at 300 ppm [3] | inhibition of growth at 300 ppm [4] | inhibition of growth at 300 ppm [5] | inhibition of growth at 300 ppm [6] | pest or weed control at 500 ppm [7] | pest or weed control at 500 ppm [8]

CCN(C)C=Nc1cc(C)cc(Cc2ccccc2OC(F)(F)F)c1Cl [Compound 50, N′-(2-chloro-5-methyl-3-(2-(trifluoromethoxy)benzyl)phenyl)-N-ethyl-N-methylformimidamide]
≥ 70%: inhibition of growth at 300 ppm [1] | inhibition of growth at 300 ppm [2] | inhibition of growth at 300 ppm [3] | inhibition of growth at 300 ppm [4] | inhibition of growth at 300 ppm [9] | inhibition of growth at 300 ppm [5] | pest or weed control at 500 ppm [7] | pest or weed control at 500 ppm [8]

CCN(C)C=Nc1cc(C)cc(NCc2ccccc2C(F)(F)F)c1Cl [Compound 181, N′-(2-chloro-5-methyl-3-((2-(trifluoromethyl)benzyl)amino)phenyl)-N-ethyl-N-methylformimidamide]
≥ 70%: inhibition of growth at 300 ppm [1] | inhibition of growth at 300 ppm [2] | inhibition of growth at 300 ppm [3] | inhibition of growth at 300 ppm [4] | inhibition of growth at 300 ppm [9] | pest or weed control at 500 ppm [7] | pest or weed control at 500 ppm [8]

CCN(C)C=Nc1cc(C)cc(Cc2ccccc2Cl)c1C [Compound 220, N′-(3-(2-chlorobenzyl)-2,5-dimethylphenyl)-N-ethyl-N-methylformimidamide]
≥ 70%: inhibition of growth at 300 ppm [1] | inhibition of growth at 300 ppm [2] | inhibition of growth at 300 ppm [3] | inhibition of growth at 300 ppm [4] | inhibition of growth at 300 ppm [9] | inhibition of growth at 300 ppm [5] | inhibition of growth at 300 ppm [6] | pest or weed control at 500 ppm [8]

CCN(C)C=Nc1cc(OC)cc(Cc2cccc(F)c2)c1C [Compound 277, N-ethyl-N′-(3-(3-fluorobenzyl)-5-methoxy-2-methylphenyl)-N-methylformimidamide]
≥ 70%: pest or weed control at 500 ppm [7] | pest or weed control at 500 ppm [8]

CCN(C)C=Nc1cc(Cl)cc(Cc2cccc(C)c2)c1C [Compound 94, N′-(5-chloro-2-methyl-3-(3-methylbenzyl)phenyl)-N-ethyl-N-methylformimidamide]
≥ 70%: inhibition of growth at 300 ppm [1] | inhibition of growth at 300 ppm [2] | inhibition of growth at 300 ppm [3] | inhibition of growth at 300 ppm [4] | inhibition of growth at 300 ppm [9] | inhibition of growth at 300 ppm [5] | pest or weed control at 500 ppm [7] | pest or weed control at 500 ppm [8]

CCN(C)C=Nc1cc(F)cc(Nc2cc(F)cc(F)c2)c1C [Compound 77, N′-(3-((3,5-difluorophenyl)amino)-5-fluoro-2-methylphenyl)-N-ethyl-N-methylformimidamide]
≥ 70%: inhibition of growth at 300 ppm [1] | inhibition of growth at 300 ppm [2] | inhibition of growth at 300 ppm [3] | inhibition of growth at 300 ppm [4] | inhibition of growth at 300 ppm [9] | inhibition of growth at 300 ppm [5] | inhibition of growth at 300 ppm [6] | pest or weed control at 500 ppm [8]

CCN(C)C=Nc1cc(C)cc(Cc2ccc(F)cc2)c1Cl [Compound 44, N′-(2-chloro-3-(4-fluorobenzyl)-5-methylphenyl)-N-ethyl-N-methylformimidamide]
≥ 70%: inhibition of growth at 300 ppm [1] | inhibition of growth at 300 ppm [2] | inhibition of growth at 300 ppm [3] | inhibition of growth at 300 ppm [4] | inhibition of growth at 300 ppm [9] | inhibition of growth at 300 ppm [5] | inhibition of growth at 300 ppm [6] | pest or weed control at 500 ppm [8]

CCN(C)C=Nc1cc(F)cc(Cc2ccc(F)cc2)c1C [Compound 204, N-ethyl-N′-(5-fluoro-3-(4-fluorobenzyl)-2-methylphenyl)-N-methylformimidamide]
≥ 70%: inhibition of growth at 300 ppm [1] | inhibition of growth at 300 ppm [2] | inhibition of growth at 300 ppm [3] | inhibition of growth at 300 ppm [4] | inhibition of growth at 300 ppm [9] | inhibition of growth at 300 ppm [5] | inhibition of growth at 300 ppm [6] | pest or weed control at 500 ppm [8]

CCN(C)C=Nc1cc(C)cc(Cc2ccccc2Br)c1C [Compound 221, N′-(3-(2-bromobenzyl)-2,5-dimethylphenyl)-N-ethyl-N-methylformimidamide]
≥ 70%: inhibition of growth at 300 ppm [1] | inhibition of growth at 300 ppm [2] | inhibition of growth at 300 ppm [3] | inhibition of growth at 300 ppm [4] | inhibition of growth at 300 ppm [9] | inhibition of growth at 300 ppm [5] | inhibition of growth at 300 ppm [6] | pest or weed control at 500 ppm [8]

CCN(C)C=Nc1cc(C)cc(Cc2cccc(C)c2)c1Cl [Compound 17, N′-(2-chloro-5-methyl-3-(3-methylbenzyl)phenyl)-N-ethyl-N-methylformimidamide]
≥ 70%: inhibition of growth at 300 ppm [1] | inhibition of growth at 300 ppm [2] | inhibition of growth at 300 ppm [3] | inhibition of growth at 300 ppm [4] | inhibition of growth at 300 ppm [9] | inhibition of growth at 300 ppm [5] | inhibition of growth at 300 ppm [6] | pest or weed control at 500 ppm [8]

CCN(C)C=Nc1cc(C)cc(Cc2ccc(C(F)(F)F)cc2)c1Cl [Compound 51, N′-(2-chloro-5-methyl-3-(4-(trifluoromethyl)benzyl)phenyl)-N-ethyl-N-methylformimidamide]
≥ 70%: inhibition of growth at 300 ppm [1] | inhibition of growth at 300 ppm [2] | inhibition of growth at 300 ppm [3] | inhibition of growth at 300 ppm [4] | inhibition of growth at 300 ppm [9] | inhibition of growth at 300 ppm [5] | inhibition of growth at 300 ppm [6] | pest or weed control at 500 ppm [7] | pest or weed control at 500 ppm [8]

CCN(C)C=Nc1cc(Cl)cc(N(C)c2cccc(Cl)c2)c1C [Compound 180, N′-(5-chloro-3-((3-chlorophenyl)(methyl)amino)-2-methylphenyl)-N-ethyl-N-methylformimidamide]
≥ 70%: inhibition of growth at 300 ppm [4] | pest or weed control at 500 ppm [7]

CCN(C)C=Nc1cc(C)cc(Cc2ccc(F)c(Cl)c2)c1Cl [Compound 54, N′-(2-chloro-3-(3-chloro-4-fluorobenzyl)-5-methylphenyl)-N-ethyl-N-methylformimidamide]
≥ 70%: inhibition of growth at 300 ppm [1] | inhibition of growth at 300 ppm [2] | inhibition of growth at 300 ppm [3] | inhibition of growth at 300 ppm [4] | inhibition of growth at 300 ppm [5] | inhibition of growth at 300 ppm [6] | pest or weed control at 500 ppm [7] | pest or weed control at 500 ppm [8]

CCN(C)C=Nc1cc(OC)cc(Cc2ccc(Br)cc2)c1C [Compound 287, N′-(3-(4-bromobenzyl)-5-methoxy-2-methylphenyl)-N-ethyl-N-methylformimidamide]
≥ 70%: inhibition of growth at 300 ppm [1] | inhibition of growth at 300 ppm [2] | inhibition of growth at 300 ppm [3] | inhibition of growth at 300 ppm [4] | inhibition of growth at 300 ppm [9] | inhibition of growth at 300 ppm [5] | inhibition of growth at 300 ppm [6] | pest or weed control at 500 ppm [8]

CCN(C)C=Nc1cc(C)cc(Cc2ccccc2)c1C [Compound 207, N′-(3-benzyl-2,5-dimethylphenyl)-N-ethyl-N-methylformimidamide]
≥ 70%: inhibition of growth at 300 ppm [1] | inhibition of growth at 300 ppm [2] | inhibition of growth at 300 ppm [3] | inhibition of growth at 300 ppm [4] | inhibition of growth at 300 ppm [9] | inhibition of growth at 300 ppm [5] | inhibition of growth at 300 ppm [6] | pest or weed control at 500 ppm [8]

CCN(C)C=Nc1cc(C)cc(Cc2ccc(OC(F)(F)F)cc2)c1Cl [Compound 52, N′-(2-chloro-5-methyl-3-(4-(trifluoromethoxy)benzyl)phenyl)-N-ethyl-N-methylformimidamide]
≥ 70%: inhibition of growth at 300 ppm [1] | inhibition of growth at 300 ppm [2] | inhibition of growth at 300 ppm [3] | inhibition of growth at 300 ppm [4] | inhibition of growth at 300 ppm [5] | inhibition of growth at 300 ppm [6] | pest or weed control at 500 ppm [7] | pest or weed control at 500 ppm [8]

CCN(C)C=Nc1cc(Cl)cc(N(C)c2ccccc2F)c1C [Compound 178, N′-(5-chloro-3-((2-fluorophenyl)(methyl)amino)-2-methylphenyl)-N-ethyl-N-methylformimidamide]
≥ 70%: inhibition of growth at 300 ppm [1] | inhibition of growth at 300 ppm [2] | inhibition of growth at 300 ppm [3] | inhibition of growth at 300 ppm [4] | pest or weed control at 500 ppm [7] | pest or weed control at 500 ppm [8]
